Reference: PMC6150201, “Synthesis and Antitumor Activity of Novel Arylpiperazine Derivatives Containing the Saccharin Moiety” (Molecules : A Journal of Synthetic Chemistry and Natural …, 2017)

How the values were obtained:
PC-3 cells = assay: In vitro cytotoxicity, CCK-8 assay, PC-3 cells; type: cell-based, human; conditions: for IC50: PC-3, androgen-insensitive human prostate cancer cell line, CCK-8, 24 h exposure, mean ± SD of three experiments; for selective activity for PC-3 cells over other cancer cells: from IC50 comparison
Experimental: (§1) The synthesized target compounds 4–21 were evaluated for their in vitro cytotoxic activities against three human prostate cancer cell lines (PC-3, LNCaP, and DU145) and compared with their effects on the human prostate epithelial cell line WPMY-1 by CCK-8 assay.
(§2) PC-3 and WPMY-1 cells were cultured in Dulbecco’s modified Eagle’s medium (DMEM, Invitrogen, Carlsbad, CA, USA) supplemented with 10% fetal bovine serum (FBS, Hyclone, Logan, UT, USA), 100 U/mL penicillin, and 0.1 mg/mL streptomycin (Invitrogen). DU145 cells were cultured in RPMI1640 media supplemented with 10% fetal bovine serum (FBS, Hyclone), 100 U/mL penicillin, and 0.1 mg/mL streptomycin (Invitrogen). LNCaP cells were cultured in F12 media supplemented with 10% fetal bovine serum (FBS, Hyclone), 100 U/mL penicillin, and 0.1 mg/mL streptomycin (Invitrogen). The cells were incubated at 37 °C in a humidified atmosphere with 5% CO2.
(§3) Cell proliferation was measured with the Cell Counting Kit-8 (CCK-8) assay kit (Dojindo Corp., Kumamoto, Japan). Cells were harvested during their logarithmic growth phase, seeded in 96-well plates at a density of 1 × 10^5 cells/mL, and cultured at 37 °C in a humidified incubator (5% CO2) for 24 h, followed by exposure to various concentrations of compounds tested for 24 h. Subsequently, 10 μL of CCK-8 (Dojindo) was added to each well, and the cells were then incubated for an additional 1 h at 37 °C to convert WST-8 into formazan. Cell growth inhibition was determined by measuring the absorbance (Abs) at λ = 450 nm using a microplate reader. Three independent experiments were performed. Cell growth inhibition was calculated according to the following equation: Growth inhibition = (1 − OD of treated cells / OD of control cells) × 100%
(§4) The half maximal inhibitory concentrations (IC50) were obtained from a linear regression analysis of the concentration-response curves plotted for each tested compound.

DU145 cells = assay: In vitro cytotoxicity, CCK-8 assay, DU145 cells; type: cell-based, human; conditions: for IC50: androgen-insensitive human prostate cancer cell line, CCK-8, 24 h exposure, mean ± SD of three experiments; for selective activity for DU145 cells over other cancer cells: in words, from IC50 comparison
Experimental: as §1, §2, §3, §4

WPMY-1 cells = assay: In vitro cytotoxicity, CCK-8 assay, WPMY-1 prostate epithelial cells; type: cell-based, human; conditions: for IC50: WPMY-1, human prostate epithelial cell line, CCK-8, 24 h exposure, mean ± SD of three experiments
Experimental: as §1, §2, §3, §4

LNCaP cells = assay: In vitro cytotoxicity, CCK-8 assay, LNCaP cells; type: cell-based, human; conditions: for IC50: LNCaP, androgen-sensitive human prostate cancer cell line, CCK-8, 24 h exposure, mean ± SD of three experiments; for selective activity for LNCaP cells over other cancer cells: from IC50 comparison
Experimental: as §1, §2, §3, §4

Structure (SMILES)	melting point [°C]	IC50 (PC-3 cells) [µM]	IC50 (DU145 cells; Homo sapiens, DU-145, 24 h) [µM]	IC50 (WPMY-1 cells) [µM]	IC50 (LNCaP cells) [µM]	IC50 (DU145 cells) [µM]	selective activity for DU145 cells over other cancer cells (DU145 cells)	selective activity for PC-3 cells over other cancer cells (PC-3 cells; in words)	cytotoxic effects on human epithelial prostate normal cells WPMY-1 (in words) (WPMY-1 cells)	selective activity for LNCaP cells over other cancer cells (LNCaP cells; in words)	cytotoxic activity for PC-3 cells (in words) (PC-3 cells; in words)	cytotoxic activity for LNCaP cells (in words) (LNCaP cells; in words)
COc1ccc(N2CCN(CCc3ccc(CN4C(=O)c5ccccc5S4(=O)=O)cc3)CC2)cc1 [Compound 10, Saccharin N-(1-(4-(methyl)phenethyl)-4-(4-methoxyphenyl)piperazine)]	149 to 150	4.38 ± 0.13	2.28 ± 0.05	> 50	> 50	–	–	–	–	–	–	–
O=C1c2ccccc2S(=O)(=O)N1Cc1ccc(CCN2CCN(c3ccccc3)CC2)cc1 [Compound 4, Saccharin N-(1-(4-(methyl)phenethyl)-4-phenylpiperazine)]	147 to 148	> 50	< 2	> 50	> 50	1.28 ± 0.04	excellent selective activity	–	–	–	–	–
Cc1ccc(N2CCN(CCc3ccc(CN4C(=O)c5ccccc5S4(=O)=O)cc3)CC2)cc1 [Compound 8, Saccharin N-(1-(4-(methyl)phenethyl)-4-p-tolylpiperazine)]	130 to 131	> 50	> 50	–	> 50	–	–	–	–	–	–	–
O=C1c2ccccc2S(=O)(=O)N1Cc1ccc(CCN2CCN(c3ncccn3)CC2)cc1 [Compound 6, Saccharin N-(2-(4-(4-(methyl)phenethyl)piperazin-1-yl)pyrimidine)]	153 to 154	4.84 ± 0.17	> 50	48.3 ± 0.56	> 50	–	–	excellent selective activity	–	–	–	–
O=C1c2ccccc2S(=O)(=O)N1Cc1ccc(CCN2CCN(c3ccc(Br)cc3)CC2)cc1 [Compound 18, Saccharin N-(1-(4-(methyl)phenethyl)-4-(4-bromophenyl)piperazine)]	105 to 106	2.25 ± 0.07	9.05 ± 0.23	> 50	> 50	–	–	–	–	–	–	–
COc1ccccc1N1CCN(CC(O)COc2cccc3ccccc23)CC1 (centres unmarked) [Naftopidil, reference compound]	–	42.1 ± 0.79	34.58 ± 0.31	> 50	22.4 ± 0.61	–	–	–	–	–	–	–
O=C1c2ccccc2S(=O)(=O)N1Cc1ccc(CCN2CCN(c3ccccc3Cl)CC2)cc1 [Compound 14, Saccharin N-(1-(4-(methyl)phenethyl)-4-(2-chlorophenyl)piperazine)]	135 to 136	14.6 ± 1.12	3.39 ± 0.11	–	> 50	–	excellent selective activity	–	–	–	–	–
O=C1c2ccccc2S(=O)(=O)N1Cc1ccc(CCN2CCN(c3ccc(C(F)(F)F)cc3)CC2)cc1 [Compound 21, Saccharin N-(1-(4-(methyl)phenethyl)-4-(4-(trifluoromethyl)phenyl)piperazine)]	108 to 109	3.73 ± 0.08	> 50	–	> 50	–	–	excellent selective activity	–	–	–	–
Cc1cccc(N2CCN(CCc3ccc(CN4C(=O)c5ccccc5S4(=O)=O)cc3)CC2)c1 [Compound 7, Saccharin N-(1-(4-(methyl)phenethyl)-4-m-tolylpiperazine)]	126 to 127	> 50	3.65 ± 0.1	> 50	> 50	–	excellent selective activity	–	–	–	–	–
O=C1c2ccccc2S(=O)(=O)N1Cc1ccc(CCN2CCN(c3ccccc3F)CC2)cc1 [Compound 11, Saccharin N-(1-(4-(methyl)phenethyl)-4-(2-fluorophenyl)piperazine)]	137 to 138	> 50	> 50	> 50	47.5 ± 2.17	–	–	–	–	–	–	–
O=C1c2ccccc2S(=O)(=O)N1Cc1ccc(CCN2CCN(c3cccc(Cl)c3Cl)CC2)cc1 [Compound 17, Saccharin N-(1-(4-(methyl)phenethyl)-4-(2,3-dichlorophenyl)piperazine)]	178 to 179	> 50	> 50	> 50	4.08 ± 0.15	–	–	–	weak cytotoxic effects	excellent selective activity	–	–
O=C1c2ccccc2S(=O)(=O)N1Cc1ccc(CCN2CCN(c3ccc(F)cc3F)CC2)cc1 [Compound 13, Saccharin N-(1-(4-(methyl)phenethyl)-4-(2,4-difluorophenyl)piperazine)]	113 to 114	> 50	> 50	> 50	5.03 ± 0.13	–	–	–	–	excellent selective activity	–	–
O=C1c2ccccc2S(=O)(=O)N1Cc1ccc(CCN2CCN(c3ccc(F)cc3)CC2)cc1 [Compound 12, Saccharin N-(1-(4-(methyl)phenethyl)-4-(4-fluorophenyl)piperazine)]	152 to 153	> 50	< 2	> 50	> 50	1.14 ± 0.1	excellent selective activity	–	weak cytotoxic effects	–	–	–
O=C1c2ccccc2S(=O)(=O)N1Cc1ccc(CCN2CCN(c3ccc(Cl)cc3)CC2)cc1 [Compound 16]	158 to 159	> 50	> 50	–	> 50	–	–	–	–	–	weak cytotoxic activity	weak cytotoxic activity
N#Cc1ccc(N2CCN(CCc3ccc(CN4C(=O)c5ccccc5S4(=O)=O)cc3)CC2)cc1 [Compound 20, Saccharin N-(4-(4-(4-(methyl)phenethyl)piperazin-1-yl)benzonitrile)]	179 to 180	2.66 ± 0.04	> 50	46.3 ± 0.51	3.43 ± 0.1	–	–	–	–	–	–	–
O=C1c2ccccc2S(=O)(=O)N1Cc1ccc(CCN2CCN(c3cccc(Cl)c3)CC2)cc1 [Compound 15, Saccharin N-(1-(4-(methyl)phenethyl)-4-(3-chlorophenyl)piperazine)]	143 to 144	2.74 ± 0.11	> 50	> 50	3.43 ± 0.16	–	–	–	–	–	–	–
N#Cc1ccccc1N1CCN(CCc2ccc(CN3C(=O)c4ccccc4S3(=O)=O)cc2)CC1 [Compound 19, Saccharin N-(2-(4-(4-(methyl)phenethyl)piperazin-1-yl)benzonitrile)]	146 to 147	> 50	> 50	39.15 ± 0.17	5.14 ± 0.16	–	–	–	–	excellent selective activity	–	–
COc1cccc(N2CCN(CCc3ccc(CN4C(=O)c5ccccc5S4(=O)=O)cc3)CC2)c1 [Compound 9, Saccharin N-(1-(4-(methyl)phenethyl)-4-(3-methoxyphenyl)piperazine)]	134 to 135	5.43 ± 0.18	> 50	> 50	> 50	–	–	excellent selective activity	–	–	–	–
